Calls of active or inactive are those of the source. The rule behind the calls is not given here.
Test system: HL-60
Assay: Apoptosis inducing activity in human HL60 cells at 10 uM after 74 hrs
Type: functional

Structure (SMILES)	Activity
CC1=C(C/C=C(\C)CC/C=C(\C)CC/C=C(\C)CC/C=C(\C)C=O)C(=O)c2ccccc2C1=O	inactive
CC1=C(C/C=C(\C)CC/C=C(\C)C=O)C(=O)c2ccccc2C1=O	inactive
CC1=C(C/C=C(\C)CC/C=C(\C)CC/C=C(\C)CC/C=C(\C)CO)C(=O)c2ccccc2C1=O	15%
CC1=C(C/C=C(\C)CC/C=C(\C)CO)C(=O)c2ccccc2C1=O	inactive
CC1=C(C/C=C(\C)CC/C=C(\C)CC/C=C(\C)C=O)C(=O)c2ccccc2C1=O	inactive
CC1=C(C/C=C(\C)CC/C=C(\C)CC/C=C(\C)CO)C(=O)c2ccccc2C1=O	75%

From ChEMBL document CHEMBL1144600, “Efficient synthesis and biological evaluation of omega-oxygenated analogues of vitamin K2: study of modification and structure-activity relationship of vitamin K2 metabolites” (2007)
